This is an account of results in ChEMBL document CHEMBL6074673, “Discovery of UCB9386: A Potent, Selective, and Brain-Penetrant Nuak1 Inhibitor Suitable for In Vivo Pharmacological Studies” (J Med Chem, 2024).

≈ marks a conversion by molar mass, not a printed value. Some results are limits rather than exact numbers.

One data set can be described thus: Metabolic stability in mouse liver microsomes assessed as intrinsic clearance. It is filed as ADME, Microsome.
Settings: not given
On the technique in general: Liver microsomes are vesicles of endoplasmic reticulum, rich in cytochrome P450 enzymes.
As for `CN1CCN(c2nc3cnc(-c4cnc5cccnn45)cc3n(Cc3ccccc3)c2=O)CC1`, the CLH turned out to be 227 mL/min/g.
The same measure, in the same setting: to `O=c1c(N2CCOCC2)nc2cnc(-c3cnc4cccnn34)cc2n1Cc1ccccc1` belongs 52 mL/min/g.
Same read-out and setting: next, `O=c1c(N2CC3CC(C2)N3)nc2cnc(-c3cnc4cccnn34)cc2n1Cc1ccccc1`: 10 mL/min/g; `O=c1c(N2CCNCC2)nc2cnc(-c3cnc4cccnn34)cc2n1Cc1ccccc1`: 32 mL/min/g.
As for `O=c1c(N2C[C@H]3C[C@@H]2CN3)nc2cnc(-c3cnc4cccnn34)cc2n1Cc1ccccc1`, the CLH amounted to 3 mL/min/g.
On the same count and under the same terms, to `CN1C[C@H]2C[C@@H]1CN2c1nc2cnc(-c3cnc4cccnn34)cc2n(Cc2ccccc2)c1=O` belongs 58 mL/min/g; to `O=c1c(N2CCC2)nc2cnc(-c3cnc4cccnn34)cc2n1Cc1ccccc1`, 226 mL/min/g.
For `O=c1c(C(F)F)nc2cnc(-c3cnc4cccnn34)cc2n1Cc1ccccc1`, the CLH came to 11 mL/min/g.

The nature of another data set: Dissociation constant, pKa of compound.
Settings: not given
The format is physicochemical.
For orientation: pKa means the negative logarithm of the acid dissociation constant. High values mean a group that holds its proton tightly, low ones a group that gives up its proton readily. For the compound `CN1CCN(c2nc3cnc(-c4cnc5cccnn45)cc3n(Cc3ccccc3)c2=O)CC1`, the pKa worked out at 7.6.
Consider `O=c1c(N2CC3CC(C2)N3)nc2cnc(-c3cnc4cccnn34)cc2n1Cc1ccccc1`, for which the pKa came out at 8.7.
The compound `O=c1c(N2CCNCC2)nc2cnc(-c3cnc4cccnn34)cc2n1Cc1ccccc1` showed a pKa of 8.5.
Turning to `O=c1c(N2C[C@H]3C[C@@H]2CN3)nc2cnc(-c3cnc4cccnn34)cc2n1Cc1ccccc1`, the pKa came out at 8.8.
For the compound `CN1C[C@H]2C[C@@H]1CN2c1nc2cnc(-c3cnc4cccnn34)cc2n(Cc2ccccc2)c1=O`, the pKa was determined as 8.4.

Assay in another data set: not given
Particulars: human, microsomes.
In turn, `CN1CCN(c2nc3cnc(-c4cnc5cccnn45)cc3n(Cc3ccccc3)c2=O)CC1` yielded a CLH of 73 mL/min/g.
Still for that read-out and setting: to `O=c1c(N2CCOCC2)nc2cnc(-c3cnc4cccnn34)cc2n1Cc1ccccc1` belongs 29 mL/min/g; to `C[C@H](c1ccccc1)n1c(=O)c(N2CC3CC(C2)N3)nc2cnc(-c3cnc4cccnn34)cc21`, 21 mL/min/g.
The same measure, in the same setting: to `O=c1c(N2CC3CC(C2)N3)nc2cnc(-c3cnc4cccnn34)cc2n1Cc1ccccc1` belongs 22 mL/min/g; to `O=c1c(N2CCNCC2)nc2cnc(-c3cnc4cccnn34)cc2n1Cc1ccccc1`, 42 mL/min/g; to `O=c1c(N2C[C@H]3C[C@@H]2CN3)nc2cnc(-c3cnc4cccnn34)cc2n1Cc1ccccc1`, 16 mL/min/g.
The same measure, in the same setting: to `O=c1cnc2cnc(-c3cnc4cccnn34)cc2n1Cc1ccccc1` belongs 34 mL/min/g; to `CN1C[C@H]2C[C@@H]1CN2c1nc2cnc(-c3cnc4cccnn34)cc2n(Cc2ccccc2)c1=O`, 83 mL/min/g.
`O=c1c(N2CCC2)nc2cnc(-c3cnc4cccnn34)cc2n1Cc1ccccc1` had a CLH of 63 mL/min/g.
In the case of `O=c1c(C(F)F)nc2cnc(-c3cnc4cccnn34)cc2n1Cc1ccccc1`, the CLH was 4 mL/min/g.

A further data set can be described thus: in vivo. The note with it: mouse, brain, 0.5 mg/kg.
Description: Ratio of unbound drug concentration in brain to plasma of mouse at 0.5 mg/kg
Compound `C[C@H](c1ccccc1)n1c(=O)c(N2CC3CC(C2)N3)nc2cnc(-c3cnc4cccnn34)cc21` registered a Kp uu of 0.026.
On the same count and under the same terms, to `O=c1c(N2CC3CC(C2)N3)nc2cnc(-c3cnc4cccnn34)cc2n1Cc1ccccc1` belongs 0.07; to `CN1C[C@H]2C[C@@H]1CN2c1nc2cnc(-c3cnc4cccnn34)cc2n(Cc2ccccc2)c1=O`, 0.5.

A further data set in a line: physchem. The note with it: buffer, pH 7.4.
Description: Photostability of compound at pH 7.4 under ambient light assessed as compound remaining at 250 uM measured after 24 hrs by 2 LC-MS analysis
As a reminder, the share remaining is the share of the starting amount still present when the sample was taken. Low values mean more turnover, high ones less turnover. Take `CC1Oc2ccc(-c3cnc4ccccn34)nc2N(Cc2ccccc2)C1=O` (stereo not drawn): the amount remaining at 24 h, 250 µM was 39%.
On the same count and under the same terms, to `O=c1cnc2cnc(-c3cnc4cccnn34)cc2n1Cc1ccccc1` belongs > 97%.

A further data set is described as follows: in vitro. The note with it: human, Caco-2.
Description: Apparent permeability in human Caco-2 cells
As a reminder, the Papp is a coefficient for how fast a substance crosses the barrier. Read a high Papp as ready permeation. On to `CN1CCN(c2nc3cnc(-c4cnc5cccnn45)cc3n(Cc3ccccc3)c2=O)CC1`, for which the apparent permeability (Papp) came out at 23.6 ×10⁻⁶ cm/s.
Same read-out and setting: to `C[C@H](c1ccccc1)n1c(=O)c(N2CC3CC(C2)N3)nc2cnc(-c3cnc4cccnn34)cc21` belongs 8.3 ×10⁻⁶ cm/s; to `O=c1c(N2CC3CC(C2)N3)nc2cnc(-c3cnc4cccnn34)cc2n1Cc1ccccc1`, 13.2 ×10⁻⁶ cm/s.
`O=c1c(N2CCNCC2)nc2cnc(-c3cnc4cccnn34)cc2n1Cc1ccccc1` registered an apparent permeability coefficient (Papp) of 10.7 ×10⁻⁶ cm/s. The Papp values of the last two compounds are within 1.5-fold of each other.
For `O=c1c(N2C[C@H]3C[C@@H]2CN3)nc2cnc(-c3cnc4cccnn34)cc2n1Cc1ccccc1`, the Papp stood at 8.6 ×10⁻⁶ cm/s.
Still for that read-out and setting: next, `O=c1cnc2cnc(-c3cnc4cccnn34)cc2n1Cc1ccccc1`: 24.4 ×10⁻⁶ cm/s; `CN1C[C@H]2C[C@@H]1CN2c1nc2cnc(-c3cnc4cccnn34)cc2n(Cc2ccccc2)c1=O`: 12.5 ×10⁻⁶ cm/s; `O=c1c(C(F)F)nc2cnc(-c3cnc4cccnn34)cc2n1Cc1ccccc1`: 13.9 ×10⁻⁶ cm/s.

The nature of the next data set: physchem. The note with it: buffer, pH 7.4. This is another data set of the same source.
Description: Thermodynamic solubility of compound at pH 7.4
As usually defined, the thermodynamic solubility is solubility found after equilibrating the solid with the medium. Consider `CN1CCN(c2nc3cnc(-c4cnc5cccnn45)cc3n(Cc3ccccc3)c2=O)CC1`, for which the solubility (thermodynamic) is < 1 µM.
`C[C@H](c1ccccc1)n1c(=O)c(N2CC3CC(C2)N3)nc2cnc(-c3cnc4cccnn34)cc21` gave a solubility (thermodynamic) of 356 µM (≈ 165 µg/mL).
As for `O=c1c(N2CC3CC(C2)N3)nc2cnc(-c3cnc4cccnn34)cc2n1Cc1ccccc1`, the thermodynamic solubility worked out at 2 µM (≈ 0.901 µg/mL).
For the compound `O=c1c(N2CCNCC2)nc2cnc(-c3cnc4cccnn34)cc2n1Cc1ccccc1`, the solubility (thermodynamic) is < 1 µM.
Take `CN1C[C@H]2C[C@@H]1CN2c1nc2cnc(-c3cnc4cccnn34)cc2n(Cc2ccccc2)c1=O`: the solubility (thermodynamic) came to 456 µM (≈ 212 µg/mL).

A short description of the next data set: in vitro. Particulars: human, hepatocytes.
Description: Metabolic stability in human hepatocytes assessed as intrinsic clearance measured per million cells
A word on the hepatocyte CLint: it is the capacity of the preparation to metabolise the compound, expressed as a volume cleared per time. Low readings indicate slow turnover, high ones rapid turnover. In turn, `C[C@H](c1ccccc1)n1c(=O)c(N2CC3CC(C2)N3)nc2cnc(-c3cnc4cccnn34)cc21` yielded a hepatocyte CLint of 9 µL/min/1e6 cells.

A short description of another data set: in vitro. The note with it: mouse, hepatocytes.
Description: Metabolic stability in mouse hepatocytes assessed as intrinsic clearance measured per million cells
For `C[C@H](c1ccccc1)n1c(=O)c(N2CC3CC(C2)N3)nc2cnc(-c3cnc4cccnn34)cc21`, the intrinsic clearance (hepatocyte CLint) turned out to be 6 µL/min/1e6 cells.
